Patent publication US20210154280A1, “NEO-EPITOPE VACCINES AND METHODS OF TREATING CANCER” (Epivax Oncology, Inc., priority 2019, published 2021)

Tests used:
[1] = tested on: CT26 murine colon tumor cells; test: Anti-tumor activity with or without poly-ICLC, CT26 murine tumor model (Example 13); type: in vivo, BALB/c mice; conditions: day 25 post-tumor implantation; relative to PBS or poly-ICLC alone; sc twice per week for three weeks
Description: The goal of this experiment was to determine the requirement for the inclusion of the adjuvant poly-ICLC in a peptide vaccine containing ANCER™ selected neoantigens. For this experiment, female BALB/c mice were implanted subcutaneously with 3×10^5 CT26 murine colon tumor cells. Tumor growth was monitored by caliper measurement and mice were sacrificed 45 days after tumor implantation or when tumor volumes reached 2000 mm^3, whichever came first.
Four vaccine groups were tested (n=10 mice/group): • Group 1=PBS only • Group 2=PBS with 50 μg poly-ICLC • Group 3=20 ANCER™ selected (uncapped) peptides with 50 μg poly-ICLC • Group 4=20 ANCER™ selected (uncapped) peptides only
Peptide vaccines were comprised of 20 different ANCER™ selected peptides at a concentration of 5 μg/peptide for a total dose of 100 μg peptide per immunization. Mice were immunized subcutaneously in the opposite flank from tumor implantation twice per week for three weeks, starting at day 4 post-tumor implantation.

[2] = tested on: CT26 tumor cells; test: CT26 tumor growth and survival after vaccination (Example 1); conditions: N=10 per group
Description: Mice were separated into three groups: 1) PBS control; 2) poly-ICLC (vehicle); 3) ANCER™-selected CT26 Neoantigen Peptides+poly-ICLC. • Group 1: PBS, sc injections at days 5, 8, 12, 15, 19, 22, and 26. • Group 2: poly-ICLC, 50 μg, sc injections at days 5, 8, 12, 15, 19, 22, and 26. • Group 3: 5 μg/ANCER™-selected CT26 Neoantigen Peptide (100 μg total ANCER™-selected CT26 Neoantigen Peptides)+50 μg poly-ICLC, sc injections at days 5, 8, 12, 15, 19, 22, and 26.
All mice (N=10 mice per group) were injected 3*10^5 CT26 tumor cells in 0% Matrigel at day 0. Mice were sacrificed once the tumor volume reached 2,000 mm^3 or at day 45, whichever came first.

poly-ICLC
control of tumor growth [1]: no difference in tumor growth kinetics
mice that survived the 45 days of the experiment (in words) [2]: None
mice reaching a tumor volume of at least 2,000 mm^3 (endpoint) ([2]; by day 28): 60%
